Laboratory results from ChEMBL document CHEMBL4665678, “Overview of AKR1C3: Inhibitor Achievements and Disease Insights” (J Med Chem, 2020).
Substitutions are numbered along the chain they refer to.

Columns and labels:
[1] = target: T1, Aldo-keto reductase family 1 member C3 (Homo sapiens, UniProt P42330); assay: Inhibition of AKR1C3 (unknown origin) using 4-androstene-3,17-dione as substrate
T1 sequence (P42330 whole entry): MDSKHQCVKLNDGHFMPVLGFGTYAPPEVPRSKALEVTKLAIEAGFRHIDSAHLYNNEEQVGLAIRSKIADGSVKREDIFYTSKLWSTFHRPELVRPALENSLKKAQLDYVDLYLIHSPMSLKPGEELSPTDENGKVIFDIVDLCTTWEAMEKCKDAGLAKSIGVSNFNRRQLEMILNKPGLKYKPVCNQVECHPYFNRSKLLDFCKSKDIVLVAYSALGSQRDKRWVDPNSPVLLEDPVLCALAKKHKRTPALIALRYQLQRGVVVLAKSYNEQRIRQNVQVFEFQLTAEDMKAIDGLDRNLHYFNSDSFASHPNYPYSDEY

AKR1C1 = target: T2, AKR1C1 (Homo sapiens, UniProt Q04828); assay: Inhibition of AKR1C1 (unknown origin) using 9,10-phenanthrenequinone as substrate at 60 uM relative to control; conditions: probe 9,10-phenanthrenequinone
T2 sequence (Q04828 whole entry): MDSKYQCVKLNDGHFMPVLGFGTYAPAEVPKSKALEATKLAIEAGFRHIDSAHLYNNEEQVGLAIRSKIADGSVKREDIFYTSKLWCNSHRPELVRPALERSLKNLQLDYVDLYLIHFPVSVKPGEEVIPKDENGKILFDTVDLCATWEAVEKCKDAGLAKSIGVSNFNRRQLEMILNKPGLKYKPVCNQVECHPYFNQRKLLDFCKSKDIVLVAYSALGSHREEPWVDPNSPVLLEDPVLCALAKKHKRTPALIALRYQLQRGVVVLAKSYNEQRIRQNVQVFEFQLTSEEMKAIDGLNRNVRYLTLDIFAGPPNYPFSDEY

AKR1C2 = target: T3, AKR1C2 (Homo sapiens, UniProt P52895); assay: Inhibition of AKR1C2 (unknown origin) using 9,10-phenanthrenequinone as substrate at 60 uM relative to control; conditions: probe 9,10-phenanthrenequinone
T3 sequence (P52895 whole entry): T2 sequence (Q04828 whole entry) with T38V, R47H, L54V, C87S, V151M, R170H, Q172L

[2] = target: T1, Aldo-keto reductase family 1 member C3; assay: Inhibition of AKR1C3 (unknown origin) using 9,10-phenanthrenequinone as substrate
[3] = target: T4, Prostaglandin G/H synthase 1 (Ovis aries, UniProt P05979); assay: Inhibition of ovine COX-1 using [14C] arachidonic acid as substrate preincubated for 20 mins followed by substrate addition measured after 30 sec by thin layer chromatography assay
T4 sequence (P05979 whole entry): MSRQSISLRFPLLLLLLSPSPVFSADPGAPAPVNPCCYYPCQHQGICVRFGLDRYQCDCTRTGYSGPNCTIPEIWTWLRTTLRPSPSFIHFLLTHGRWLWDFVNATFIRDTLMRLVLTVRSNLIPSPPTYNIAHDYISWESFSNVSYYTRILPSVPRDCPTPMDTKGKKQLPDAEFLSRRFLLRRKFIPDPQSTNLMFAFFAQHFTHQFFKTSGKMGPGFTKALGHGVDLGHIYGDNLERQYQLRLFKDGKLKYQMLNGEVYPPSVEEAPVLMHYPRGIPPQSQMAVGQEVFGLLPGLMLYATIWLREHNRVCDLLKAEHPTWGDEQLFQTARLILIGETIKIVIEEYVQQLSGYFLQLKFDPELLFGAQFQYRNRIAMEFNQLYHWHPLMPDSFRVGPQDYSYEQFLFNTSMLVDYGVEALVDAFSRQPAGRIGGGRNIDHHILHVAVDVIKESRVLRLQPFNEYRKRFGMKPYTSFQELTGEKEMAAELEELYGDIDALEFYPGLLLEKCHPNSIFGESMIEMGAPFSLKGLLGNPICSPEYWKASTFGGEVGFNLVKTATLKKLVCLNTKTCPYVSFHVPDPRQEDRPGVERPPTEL

[4] = target: T5, Prostaglandin G/H synthase 2 (Homo sapiens, UniProt P35354); assay: Inhibition of human COX-2 expressed in Sf9 insect cells using [14C] arachidonic acid as substrate preincubated for 20 mins followed by substrate addition measured after 30 sec by thin layer chromatography assay
T5 sequence (P35354 whole entry): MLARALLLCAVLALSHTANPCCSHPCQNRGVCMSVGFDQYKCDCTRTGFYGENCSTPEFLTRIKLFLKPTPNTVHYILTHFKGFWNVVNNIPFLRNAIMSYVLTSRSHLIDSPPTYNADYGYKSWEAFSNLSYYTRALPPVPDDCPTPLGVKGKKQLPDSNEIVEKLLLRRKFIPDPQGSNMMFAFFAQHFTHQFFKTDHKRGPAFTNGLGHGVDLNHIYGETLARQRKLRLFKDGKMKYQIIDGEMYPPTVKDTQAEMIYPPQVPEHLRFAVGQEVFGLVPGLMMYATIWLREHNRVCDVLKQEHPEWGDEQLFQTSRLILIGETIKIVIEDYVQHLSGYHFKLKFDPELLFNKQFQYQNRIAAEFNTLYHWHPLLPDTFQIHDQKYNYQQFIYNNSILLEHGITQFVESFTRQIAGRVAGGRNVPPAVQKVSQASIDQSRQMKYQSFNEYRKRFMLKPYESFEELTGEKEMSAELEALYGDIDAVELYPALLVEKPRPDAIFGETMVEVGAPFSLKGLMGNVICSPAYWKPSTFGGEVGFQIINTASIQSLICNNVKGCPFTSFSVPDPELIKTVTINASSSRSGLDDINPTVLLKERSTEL

[5] = target: T1, Aldo-keto reductase family 1 member C3; assay: Inhibition of N-terminal His-tagged human AKR1C3 (1 to 323 residues) expressed in Escherichia coli using 4-adione as substrate in presence of NADPH by fluorescence method
[6] = target: T1, Aldo-keto reductase family 1 member C3; assay: Inhibition of human AKR1C3 expressed in Escherichia coli incubated for 30 mins in presence of NADPH regeneration system by UHPLC analysis
[7] = target: T1, Aldo-keto reductase family 1 member C3; assay: Inhibition of AKR1C3 (unknown origin) expressed in human HCT116 cells incubated for 2 to 4 hrs by UHPLC analysis; format: cell-based, HCT-116
[8] = target: T1, Aldo-keto reductase family 1 member C3; assay: Inhibition of human AKR1C3 expressed in Escherichia coli incubated for 30 mins in presence of NADPH regeneration system by UHPLC method based Lineweaver-Burk double-reciprocal plot analysis
[9] = target: T1, Aldo-keto reductase family 1 member C3; assay: Inhibition of AKR1C3 (unknown origin) expressed in human HCT116 cells incubated for 3 to 6 hrs by UHPLC analysis; format: cell-based, HCT-116
[10] = target: T6, Aldo-keto reductase family 1 member C1 (Homo sapiens, UniProt Q04828); assay: Inhibition of NH2-terminal His6-tagged recombinant human AKR1C1 expressed in Escherichia coli BL21(DE3) cells using assessed as phenanthrenequinone reduction
T6 sequence (Q04828 whole entry): T2 sequence (Q04828 whole entry)

[11] = target: T7, Aldo-keto reductase family 1 member C3 (Homo sapiens) (UniProt P42330); assay: Inhibition NH2-terminal His6-tagged recombinant human AKR1C3 expressed in Escherichia coli BL21(DE3) cells using assessed as phenanthrenequinone reduction
T7 sequence (whole entry): T1 sequence (P42330 whole entry)

[12] = target: T8, Aldo-keto reductase family 1 member C2 (Homo sapiens, UniProt P52895); assay: Inhibition NH2-terminal His6-tagged recombinant human AKR1C2 expressed in Escherichia coli BL21(DE3) cells using assessed as phenanthrenequinone reduction
T8 sequence (P52895 whole entry): T2 sequence (Q04828 whole entry) with T38V, R47H, L54V, C87S, V151M, R170H, Q172L

[13] = target: T1, Aldo-keto reductase family 1 member C3; assay: Inhibition of human AKR1C3 expressed in Escherichia coli preincubated for 15 mins followed by Adion addition and measured after 30 mins by HPLC analysis

## COc1ccc2c(c1)c(CCNC(C)=O)cn2C(=O)c1ccc(Cl)cc1
[1]
  IC50: 11.4 µM
AKR1C1
  inhibition at 60 µM: < 10%
AKR1C2
  inhibition at 60 µM: < 10%
[2]
  IC50: 7.8 µM
[3]
  IC50: > 60 µM
[4]
  IC50: > 60 µM

## COc1ccc2cc3[n+](cc2c1OC)CCc1cc2c(cc1-3)OCO2 [BERBERINE]
[5]
  IC50: 4.08 µM

## Nc1cc(C(F)(F)F)c(-c2cc(N3CCOCC3)nc(N3CCOCC3)n2)cn1 [BUPARLISIB]
[6]
  IC50: 9.5 µM
[7]
  IC50: 7.9 µM
[8]
  Ki: 14 µM

## CCc1cnn2c(NCc3ccc[n+]([O-])c3)cc(N3CCCC[C@H]3CCO)nc12 [DINACICLIB]
[9]
  IC50: 0.23 µM
[6]; read-out: Ki(app)
  Ki: 0.07 µM

## CC/C=C\CC1C(=O)CCC1CC(=O)OC (stereo unspecified) [METHYL JASMONATE]
[10]
  Kis: 162 uM/L
[11]
  Kis: 153 µM/L
[12]
  Kis: 49 uM/L

## CO[C@@H]1C=C[C@@]23c4cc5c(cc4CO[C@]2(O)CN(C)[C@H]3C1)OCO5 [TAZETTINE]
[13]
  IC50: 15.8 µM
